Counter-ions that a name gives are not always drawn.
Assays:
[1] = system: ME54 cells derived from a patient with Leigh syndrome; experiment: Tolerance to oxidative stress by BSO, ME54 cells; assay type: cell-based, human
Description: (§1) The oxidative stress test is a known pharmaceutical agent screening method, which was carried out under the conditions where cell death was induced by addition of L-buthionine-(S,R)-sulfoximine (BSO) (Arce P M et al., ACS Med Chem Lett., May 31, 2011, Vol. 2 (8), p. 608-13, doi: 10.1021/m1200095w. eCollection, Aug. 11, 2011, PubMed PMID: 24900356; PubMed Central PMCID: PMC4018135). BSO inhibits synthesis of glutathione serving as an antioxidant in the cells to deplete glutathione, raising the level of active oxygen within the cells. The procedure of the test is as follows. The cells to be used in the test were seeded in a 96-well plate for cell culture so as to satisfy a concentration of 5,000 cells/well and 80 μL medium/well and cultured in a CO2 incubator (37° C., 5% CO2) for 24 hours. Twenty four hours after the culture, BSO and each of the pharmaceutical agents (final concentration of 1 μM) of the drug library were together added to the cells within the wells. Forty eight hours after the addition, survival rates were determined. The survival rates were determined by measuring absorbance of formazan generated by use of cell count reagent SF (Nacalai Tesque, Inc.). As a positive control compound, idebenone (Non Patent Literature 1) approved as a therapeutic agent for Leber's hereditary optic neuritis in Europe, was used in the same concentration. […]

[2] = system: Promo 1 cells as normal cells; experiment: Tolerance to oxidative stress by BSO, Promo1 normal cells; assay type: cell-based, human; conditions: Promo 1 normal cells; concentration range of 1 to 1000 μM
Description: as §1

[3] = system: ME54 cells derived from a patient with Leigh syndrome; experiment: Oxidative stress test (BSO-induced cell death), ME54 cells; assay type: cell-based, human; conditions: BSO plus agent 1 μM, 48 hours after addition
Excerpt: (§2) In mitochondrial dysfunction, for example, ATP production is damaged and/or oxidative stress increases, with the result that apoptosis of cells is induced. Because of this, individuals having mitochondrial dysfunction are reported to be less tolerant to oxidative stress, compared to normal individuals (Shrader W D et al., Bioorg Med Chem Lett., Jun. 15, 2011, Vol. 21 (12), p. 3693-8, doi: 10.1016/j.bmc1.2011.04.085. electronically published on Apr. 24, 2011, PubMed PMID: 21600768). Then, oxidative stress was given to the skin fibroblasts of individual patients mentioned above to induce apoptosis. Under the conditions, compounds of the drug library were each administered to the cells. In this manner, a primary screening was carried out. Then, candidate pharmaceutical agents selected by the primary screening were subjected to a secondary screening, which is an in-vitro evaluation test such as a mitochondrial function evaluation test and a microarray expression analysis.
(§3) The oxidative stress test is a known pharmaceutical agent screening method, which was carried out under the conditions where cell death was induced by addition of L-buthionine-(S,R)-sulfoximine (BSO) (Arce P M et al., ACS Med Chem Lett., May 31, 2011, Vol. 2 (8), p. 608-13, doi: 10.1021/m1200095w. eCollection, Aug. 11, 2011, PubMed PMID: 24900356; PubMed Central PMCID: PMC4018135). BSO inhibits synthesis of glutathione serving as an antioxidant in the cells to deplete glutathione, raising the level of active oxygen within the cells. The procedure of the test is as follows. The cells to be used in the test were seeded in a 96-well plate for cell culture so as to satisfy a concentration of 5,000 cells/well and 80 μL medium/well and cultured in a CO2 incubator (37° C., 5% CO2) for 24 hours. Twenty four hours after the culture, BSO and each of the pharmaceutical agents (final concentration of 1 μM) of the drug library were together added to the cells within the wells. Forty eight hours after the addition, survival rates were determined. The survival rates were determined by measuring absorbance of formazan generated by use of cell count reagent SF (Nacalai Tesque, Inc.). As a positive control compound, idebenone (Non Patent Literature 1) approved as a therapeutic agent for Leber's hereditary optic neuritis in Europe, was used in the same concentration.
(§4) An oxidative stress test was carried out by using three fibroblast cell lines derived from patients with a mitochondrial disease and provided in 1-2. The pharmaceutical agent showing the survival rate equal to or more than that of idebenone, a positive control compound, was determined to be effective. The results of oxidative stress test of pharmaceutical agents of the drug library to KCMC10 cells are shown in FIG. 2; the results of oxidative stress test of pharmaceutical agents of the drug library to ME54 cells are shown in FIG. 3; and the results of oxidative stress test of pharmaceutical agents of the drug library to ME110 cells are shown in FIG. 4.

[4] = system: KCMC10 cells; experiment: Evaluation test for mitochondrial function (extracellular flux analyzer, OCR), KCMC10 cells; assay type: cell-based, human; conditions: 10 to 100 nM, 24 hours after addition, vs DMSO control
Description: (§5) An evaluation test for mitochondrial function including ATP production (capacity) was carried out by using an extracellular flux analyzer (XFe96, Primetech Corporation). Mitochondrial function can be evaluated by continuously measuring the oxygen consumption rate (OCR) of mitochondria during ATP synthesis by use of the extracellular flux analyzer while adding ATP synthase inhibitors (oligomycin, rotenone and antimycin A) and an uncoupler (carbonyl cyanide-p-trifluoromethoxy phenylhydrazone (FCCP)). The evaluation items to be analyzed were basal respiratory volume, ATP production (capacity) and maximum respiratory volume, which are major indexes for evaluating mitochondrial function. The test procedure is as follows. The cells to be used in the test were seeded in a 96-well plate for cell culture so as to satisfy a concentration of 20,000 cells/well and 80 μL medium/well and cultured in a CO2 incubator (37° C., 5% CO2) for 24 hours. Twenty four hours after the culture, each of the pharmaceutical agents (final concentration of 1,000, 100 or 10 nM) of the drug library or the same amount of dimethyl sulfoxide (DMSO) as a control was added to the cells within wells. Twenty minutes after the addition of the pharmaceutical agent, oligomycin (final concentration of 2 μM) was added. Fifty minutes after the addition of the pharmaceutical agent, FCCP (final concentration of 2 μM) was added. Eighty minutes after the addition of the pharmaceutical agent, rotenone and antimycin A (final concentration of 0.5 μM) were sequentially added. The oxygen consumption rate (OCR) was measured with time. Based on the measurement results 24 hours after the addition of the pharmaceutical agents of the drug library, basal respiratory volume, ATP production (capacity) and maximum respiratory volume were evaluated.
(§6) Reference symbols of ** and ***, which represent p values relative to the control (DMSO) calculated by Student's t-test, show […], respectively.

[5] = stated as known; cited from earlier work
[6] = system: ME110 cells; experiment: Evaluation test for mitochondrial function (extracellular flux analyzer, OCR), ME110 cells; assay type: cell-based, human; conditions: 10 nM, 24 hours after addition, vs DMSO control
Description: as §5, §6

[7] = system: ME110 cells derived from a patient with MELAS; experiment: Oxidative stress test (BSO-induced cell death), ME110 cells; assay type: cell-based, human; conditions: BSO plus agent 1 μM, 48 hours after addition
Excerpt: as §2, §3, §4

[8] = system: KCMC10 cells derived from a patient with Leigh syndrome; experiment: Oxidative stress test (BSO-induced cell death), KCMC10 cells; assay type: cell-based, human; conditions: BSO plus agent 1 μM, 48 hours after addition
Excerpt: as §2, §3, §4

[9] = system: KCMC10 cells derived from patients with Leigh syndrome; experiment: Microarray expression analysis
Description: Expression analysis by a microarray was carried out by use of SurePrint G3 Human Gene Expression 8×60K v3 of Agilent Technologies, Inc. To KCMC10 cells derived from patients with Leigh syndrome, BSO was added, to prepare a group of patients provided with oxidative stress. To the cells, BSO and each of the candidate pharmaceutical agents selected from the drug library were both added to prepare another group. In this manner, two samples per each group were prepared. RNA was extracted from each of the samples and subjected to expression analysis by a microarray.
In the tables, the value of Log 2 ratio between the two groups of 1 means that expression ratios differ twice, the value of Log 2 ratio of 2 means 4 times difference and the value of Log 2 ratio of 3 means 8 times difference.

[10] = KCMC10, BSO/agent vs BSO, Inflammatory cytokine
[11] = KCMC10, BSO/agent vs BSO, JAK-STAT signal pathway
[12] = KCMC10, BSO/agent vs BSO, Lymphocytic tissue homing receptor
[13] = KCMC10, BSO/agent vs BSO, MARK signal pathway
[14] = KCMC10, BSO/agent vs BSO, Proinflammatory effect
[15] = KCMC10, BSO/agent vs BSO, Table 4
[16] = KCMC10, BSO/agent vs BSO, WNT signal pathway
[17] = KCMC10, BSO/agent vs BSO, mTOR signal pathway
[18] = KCMC10 cells, BSO/agent addition group vs BSO addition group

For `CCCCS(=N)(=O)CCC(N)C(=O)O` [BSO, L-buthionine-(S,R)-sulfoximine], the “concentration at which the survival rate significantly decreased” value [1] was at least 50 µM and the “difference in survival rates” value [2] was “no significant difference”.

For `CN1CCc2cccc3c2[C@H]1Cc1ccc(O)c(O)c1-3` [Pharmaceutical agent No. 5, R(−)-Apomorphine hydrochloride hemihydrate], the “survival rate equal to or more than that of idebenone (determined to be effective)” value (“survival rate equal to or more than that” below) [3] was “effective”, the “ATP production (capacity)” value [4] was “significantly improved” and the basal respiratory volume [4] was “significantly improved”. For the same molecule, the maximum respiratory volume [4] was “significantly improved”, the “ability to pass through the blood-brain barrier” value [5] was “known to be able to pass through the blood-brain barrier” and the “ATP production (capacity)” value [6] was “significantly improved”. The basal respiratory volume [6] was “significantly improved”, the maximum respiratory volume [6] was “significantly improved” and the “survival rate equal to or more than that” value [7] was “effective”. The “survival rate equal to or more than that” value [8] was “effective”, the “Expression change (Increase/Decrease), CCL3” value [9, 10] was “Decrease” and the “Expression change (Increase/Decrease), IL24” value [9, 10] was “Decrease”. For the same molecule, the “Expression change (Increase/Decrease), LIF” value [9, 10] was “Decrease”, the “Log 2 ratio between two groups, CCL3” value [9, 10] was −2.98 and the “Log 2 ratio between two groups, IL24” value [9, 10] was −1.77. The “Log 2 ratio between two groups, LIF” value [9, 10] was −3.32, the “Expression change (Increase/Decrease), BCL2A1” value [9, 11] was “Decrease” and the “Expression change (Increase/Decrease), FHL1” value [9, 11] was “Increase”. The “Expression change (Increase/Decrease), IL13RA2” value [9, 11] was “Decrease”, the “Expression change (Increase/Decrease), SOCS2” value [9, 11] was “Increase” and the “Expression change (Increase/Decrease), SOSC1” value [9, 11] was “Decrease”. The “Log 2 ratio between two groups, BCL2A1” value [9, 11] was −3.90, the “Log 2 ratio between two groups, FHL1” value [9, 11] was 1.01 and the “Log 2 ratio between two groups, IL13RA2” value [9, 11] was −1.63. The “Log 2 ratio between two groups, SOCS2” value [9, 11] was 1.30, the “Log 2 ratio between two groups, SOSC1” value [9, 11] was −1.21 and the “Expression change (Increase/Decrease), CCL19” value [9, 12] was “Decrease”. For the same molecule, the “Log 2 ratio between two groups, CCL19” value [9, 12] was −4.92, the “Expression change (Increase/Decrease), DUSP6” value [9, 13] was “Decrease” and the “Log 2 ratio between two groups, DUSP6” value [9, 13] was −3.25. For the same molecule, the “Expression change (Increase/Decrease), IL12A” value [9, 14] was “Decrease”, the “Log 2 ratio between two groups, IL12A” value [9, 14] was −2.71 and the “Expression change (Increase/Decrease), CCL7” value [9, 15] was “Decrease”. The “Expression change (Increase/Decrease), CSF3” value [9, 15] was “Decrease”, the “Expression change (Increase/Decrease), CXCL2” value [9, 15] was “Decrease” and the “Expression change (Increase/Decrease), CXCL3” value [9, 15] was “Decrease”. For the same molecule, the “Expression change (Increase/Decrease), CXCL8” value [9, 15] was “Decrease”, the “Expression change (Increase/Decrease), MMP1” value [9, 15] was “Decrease” and the “Log 2 ratio between two groups, CCL7” value [9, 15] was −2.41. For the same molecule, the “Log 2 ratio between two groups, CSF3” value [9, 15] was −5.58, the “Log 2 ratio between two groups, CXCL2” value [9, 15] was −2.68 and the “Log 2 ratio between two groups, CXCL3” value [9, 15] was −3.72. For the same molecule, the “Log 2 ratio between two groups, CXCL8” value [9, 15] was −4.34, the “Log 2 ratio between two groups, MMP1” value [9, 15] was −1.40 and the “Expression change (Increase/Decrease), DKK4” value [9, 16] was “Increase”. For the same molecule, the “Expression change (Increase/Decrease), FZD8” value [9, 16] was “Decrease”, the “Expression change (Increase/Decrease), GBP” value [9, 16] was “Increase” and the “Expression change (Increase/Decrease), LEF1” value [9, 16] was “Decrease”. The “Expression change (Increase/Decrease), SOST” value [9, 16] was “Increase”, the “Log 2 ratio between two groups, DKK4” value [9, 16] was 1.66 and the “Log 2 ratio between two groups, FZD8” value [9, 16] was −1.51. For the same molecule, the “Log 2 ratio between two groups, GBP” value [9, 16] was 2.11, the “Log 2 ratio between two groups, LEF1” value [9, 16] was −1.23 and the “Log 2 ratio between two groups, SOST” value [9, 16] was 1.70. For the same molecule, the “Expression change (Increase/Decrease), CAB39L” value [9, 17] was “Decrease”, the “Expression change (Increase/Decrease), DEPTOR” value [9, 17] was “Increase” and the “Expression change (Increase/Decrease), FECN” value [9, 17] was “Decrease”. For the same molecule, the “Expression change (Increase/Decrease), PRR5” value [9, 17] was “Increase”, the “Expression change (Increase/Decrease), RNF152” value [9, 17] was “Decrease” and the “Expression change (Increase/Decrease), RPS6KA1” value [9, 17] was “Decrease”. The “Expression change (Increase/Decrease), RRAGD” value [9, 17] was “Decrease”, the “Expression change (Increase/Decrease), SESN2” value [9, 17] was “Increase” and the “Log 2 ratio between two groups, CAB39L” value [9, 17] was −1.37. The “Log 2 ratio between two groups, DEPTOR” value [9, 17] was 2.11, the “Log 2 ratio between two groups, FECN” value [9, 17] was −1.61 and the “Log 2 ratio between two groups, PRR5” value [9, 17] was 4.19. The “Log 2 ratio between two groups, RNF152” value [9, 17] was −1.61, the “Log 2 ratio between two groups, RPS6KA1” value [9, 17] was −1.22 and the “Log 2 ratio between two groups, RRAGD” value [9, 17] was −2.27. The “Log 2 ratio between two groups, SESN2” value [9, 17] was 1.41, the “number of genes showing a significant change in expression (expression ratio differs twice or more)” value [9, 18] was 475 types of genes and the “overall expression change of genes of the WNT-mTOR signal pathway (Table 3)” value [9, 18] was “changed toward suppressing the WNT-mTOR signal pathway”. The “overall expression change of genes related to cytokines or chemokines involved in inflammation or natural immunity (Table 4)” value [9, 18] was “changed toward suppressing expression of the cytokines or chemokines”.
